Assay results published in patent publication US20030171617A1, “3,4-Dihydroxymandelic acid alkylamides and use thereof” (priority 2000, published 2003).

Key:
[1] = DPPH (1,1-diphenyl-2-picrylhydrazyl) test for the removal of free radicals; assay type: physicochemical; settings: c(test compound)/c(DPPH); DPPH 100 μmol/l in methanol; absorption at 515 nm
Experimental: The activity of the exemplary compounds as in examples 1 to 3 as free-radical scavengers was compared with that of conventional free-radical scavengers. For this purpose, the DPPH (1,1-diphenyl-2-picrylhydrazyl) test for the removal of free radicals was used.
DPPH was dissolved in methanol to a concentration of 100 μmol/l. A series of dilutions of the exemplary compounds, vitamin C, α-tocopherol and dibutylhydroxytoluene were prepared in methanol. Methanol served as the control. 2500 μl of the DPPH solution were mixed with 500 μl of each test solution and the decrease in absorption at 515 nm was read until the decrease was less than 2% per hour. The activity of the test substances as free-radical scavengers was calculated according to the following equation:
Activity as free-radical scavenger (%)=100−(absorption of the test compounds)/(absorption of the control)×100.
The activity as free-radical scavenger (%) in a series of dilutions of test compounds was used to calculate, for each test compound, the effective relative concentration EC50 (based on the starting concentration of DPPH, EC=c (test compound)/c(DPPH)) of a test compound at which 50% of the free radical DPPH had been removed.

[2] = Accelerated autoxidation of lipids by air (Rancimat apparatus), antioxidative index; assay type: physicochemical; settings: AOI=IP(with test solution)/IP(control sample); squalene purified over alumina, stabilized with 1 ppm α-tocopherol; dry air 20 l/h
Experimental: The activity of the exemplary compounds as in examples 1 to 3 as antioxidants was compared with that of conventional antioxidants. The test system used was the accelerated autoxidation of lipids by air with or without antioxidant using the Rancimat apparatus (Rancimat is a registered trademark of Metrohm AG, Herisau, Switzerland).
The exemplary compounds, vitamin C, α-tocopherol and dibutylhydroxytoluene were dissolved in methanol or acetone, and 100 μl of each test solution were added to a 3 g preprepared oil sample. In a control sample, only solvent was added. A constant stream of dry air (20 l/h) was bubbled through the heated oil sample which contained the test solution, and the volatile oxidation products (predominantly short-chain fatty acids such as formic acid or acetic acid) were collected in a receiver containing water. The conductivity of this aqueous solution was continuously measured and documented. The oxidation of (unsaturated) fats proceeds only very slowly for some time and then suddenly increases. The time to the increase is referred to as the induction period (IP).
The following equation was used to calculate the antioxidative index (AOI):
AOI=IP(with test solution)/IP(control sample).
The results for the experiment at […] in squalene that has been purified over alumina grade N and stabilized with 1 ppm of α-tocopherol are given in table 2: […]

Row | Structure (SMILES) | EC50 (effective relative concentration at which 50% of the free radical DPPH had been removed) [1] [mol/mol] | AOI in squalene at 80° C. with 0.005% of test substance [2]
1 | Cc1cc(C(C)(C)C)c(O)c(C(C)(C)C)c1 [Dibutylhydroxytoluene] | 0.24 | 38
2 | CCCCC(CC)CNC(=O)C(O)c1ccc(O)c(O)c1 (stereo not drawn) [Example 1, 2-(3,4-Dihydroxyphenyl)-N-(2-ethylhexyl)-2-hydroxyacetamide] | 0.12 | 69
3 | O=C(NC1CCCCC1)C(O)c1ccc(O)c(O)c1 (stereo not drawn) [Example 2, N-Cyclohexyl-2-(3,4-dihydroxyphenyl)-2-hydroxyacetamide] | 0.11 | 43
4 | CCCCCCNC(=O)C(O)c1ccc(O)c(O)c1 (stereo not drawn) [Example 3, 2-(3,4-Dihydroxyphenyl)-N-n-hexyl-2-hydroxyacetamide] | 0.12 | 55
5 | O=C1O[C@H]([C@@H](O)CO)C(O)=C1O [Vitamin C] | 0.27 | 0.7
6 | Cc1c(C)c2c(c(C)c1O)CC[C@@](C)(CCC[C@H](C)CCC[C@H](C)CCCC(C)C)O2 [α-Tocopherol] | 0.25 | 39
